Laboratory results reported in ChEMBL document CHEMBL2311511, “Dipeptide cis-cyclo(Leucyl-Tyrosyl) produced by sponge associated Penicillium sp. F37 inhibits biofilm formation of the pathogenic Staphylococcus epidermidis” (Bioorg Med Chem Lett, 2013).
Active and inactive are the calls of the source. No cut-off for these calls is given here.

Tests used:
[1] = system: Staphylococcus epidermidis; experiment: Toxicity in Staphylococcus epidermidis ATCC 35984 assessed as growth inhibition at 0.25 to 1 mg/ml; assay type: organism-based; details: in vivo
[2] = system: Staphylococcus epidermidis; experiment: Inhibition of Staphylococcus epidermidis ATCC 35984 biofilm formation at 0.5 mg/ml; assay type: functional
[3] = system: Staphylococcus epidermidis; experiment: Inhibition of Staphylococcus epidermidis ATCC 35984 biofilm formation at 0.25 mg/ml; assay type: functional
[4] = system: Staphylococcus epidermidis; experiment: Inhibition of Staphylococcus epidermidis ATCC 35984 biofilm formation at 0.125 mg/ml; assay type: functional, organism-based
[5] = system: Staphylococcus epidermidis; experiment: Inhibition of Staphylococcus epidermidis ATCC 35984 biofilm formation at 1 mg/ml after 24 hrs by scanning electron microscopy; assay type: functional, organism-based
[6] = system: Staphylococcus epidermidis; experiment: Inhibition of Staphylococcus epidermidis ATCC 35984 biofilm formation at 1 mg/ml; assay type: functional

For `CC(C)C[C@@H]1NC(=O)[C@H](Cc2ccc(O)cc2)NC1=O`, the Activity [1] was “Non-toxic”, the inhibition at 500 µg/mL [2] was 65% and the inhibition at 250 µg/mL [3] was 60%. For the same compound, the Activity [4] was “inactive”, the inhibition [5] was “Active” and the inhibition at 1000 µg/mL [6] was 85%.
